Values quoted from earlier work in US11992485B2, “Analgesic formulations and methods for reduced postoperative nausea and vomiting and enhanced postoperative pain relief” (Hutchison Health, LLC, priority 2013, dated 2024).
Counter-ions that a name gives are not always drawn.

Tests used:
[1] = tested on: 50 patients
[2] = tested on: Lumbar Laminectomy patients
[3] = Table 2: 12 hr., Rahmanian et al.

Structure (SMILES): CCCCN1CCCCC1C(=O)Nc1c(C)cccc1C (stereo not drawn) [Bupivacaine Hydrochloride]
- % of patients with NO PONV ([1]; Table 1: first 24-48 hours post-surgery, Patel et al.): 72%
- patients who developed PONV ([1]; intrathecal, Patel): 28%
- decrease of postoperative surgical pain compared with 30 ml Normal Saline ([2]; 30 mL of 0.25%, infiltrative field block at surgical closure, Rahmanian): no more effective than 30 ml Normal Saline
- Patients with MILD PAIN [2, 3]: 0%
- Patients with NO PAIN [2, 3]: 0%
- VAS scores at rest compared with control Normal Saline group ([2]; subjective linear VAS, Rahmanian): higher
